Test system: cells
Assay: Cell cycle analysis (G2/M arrest)
Assay type: cell-based
Details: single substances; no data given

Question: `N=C(N)c1ccc(OCCCCCOc2ccc(C(=N)N)cc2)cc1` [pentamidine] was tested. Which “effect on the cell cycle” value did it give?
Answer: maintain cells in the G2/M cell cycle

From patent US8110583B2, “Tetrahydroquinoline derivatives” (Merck Patent GmbH, priority 2005, dated 2012)
